Assay [1] has as its system SARS-CoV-2 (isolate 30-287). Briefly: microbe, parasite or virus in culture. The class given is cell-based. The following applies: Severe acute respiratory syndrome coronavirus 2, Vero C1008, VERO E6 cells, 96 hours, read-out: IC50, synthesis of new viral RNA.
In assay [2] the test system is influenza virus A/FM/1/47/H1N1. Briefly: Real-Time PCR of newly synthesized viral RNA (M1 genome copies) in infected MDCK-II cells. It counts as cell-based, human Influenza A/FM/1/47/H1N1 strain. The note with it: 12 hours. How it is done:
(§1) All assays in Examples 1, 2, 4 and 5 were performed with the human Influenza A/FM/1/47/H1N1 strain, and canine MDCK-II cells, whilst in Example 7 VERO E6 monkey kidney cells were used.
MDCK-II cells were plated in 12-well plates. After overnight incubation, the cells were washed with phosphate-buffer saline (PBS) and infected with influenza virus A/FM/1/47/H1N1) for 2 hours at 37° C.
The inoculum was then removed and the cells were incubated with MEM containing various concentrations of Compound A for 12 hours.
(In general: Quantitative PCR measures a nucleic acid by following its amplification.)

Assay [3] relates to Influenza A/FM/1/47/H1N1. Briefly: virus titer of supernatants of infected MDCK-II cells (plaque titration). The class given is cell-based, human Influenza A/FM/1/47/H1N1 strain. The procedure: as §1
MDCK-II cells in Minimal Essential Medium (MEM) were seeded into a 6-well plate and incubated at 37° C. The following day, the cells were infected with influenza A/FM/1/47/H1N1 and incubated at 37° C. for 2 hours, followed by washing extensively with serum free MEM.
The infected cells were then cultured in media supplemented with varying concentrations of Compound A at 37° C. for 24 to 48 hours. Supernatants of the infected cells, containing the newly synthesised virions, were harvested and titrated in MDCK-II cells. Upon plaque formation, the infected cells were washed with phosphate-buffered saline (PBS) and fixed with paraformaldehyde. Cell monolayers were stained with crystal violet and observed microscopically.

The test system of assay [4] is influenza virus A/FM/1/47. Briefly: intracellular viral nucleoprotein (NP) by Western Blot Analysis in infected cells. The class given is cell-based, human Influenza A/FM/1/47/H1N1 strain. The following applies: p-cymene 200 ng/mL; 7, 10 and 24 hours after infection. The procedure: as §1
Intracellular viral nucleoprotein (NP) concentration was quantified by Western Blot Analysis at 7, 10 and 24 hours after infection.
A six-well culture plate was seeded with cells, which were then incubated at 37° C. for 24 hours under 5% CO2. The cells were infected with influenza virus A/FM/1/47 at 37° C. for 1 hour and then p-cymene was added (200 ng/mL). The cells were harvested at the indicated time periods (7h, 10h and 24h). The lysates were incubated for 20 min on ice and then centrifuged at 14,000×g for 10 min at 4° C. The supernatants were collected and equal amounts of proteins were resolved by sodium dodecyl sulfate (10%) polyacrylamide gel electrophoresis.
Background: A western blot detects proteins with antibodies after separation by electrophoresis.

In assay [5] the test system is Influenza A/FM/1/47/H1N1. Briefly: plaque-reduction assay in MDCK-II cells. The following applies: 72 hours, all concentrations above 200 ng/mL. The class given is cell-based, human Influenza A/FM/1/47/H1N1 strain. The procedure:
as §1
The antiviral activity of p-cymene in Influenza A/FM/1/47/H1N1 was assayed in a plaque-reduction assay (expressed in forming plaques).
Canine MDCK-II cells were seeded into 6-well plastic plates and cultured at 37° C. under 5% CO2 for 24 hours. The MDCK-II cells were then inoculated with Influenza A/FM/1/47/H1N1 for 2 hours, after which the infected cells were washed and cultured for 72 hours at 37° C. under 5% CO2 in the presence of different concentrations of p-cymene in Minimum Essential Medium (MEM). Ribavirin was used as a control at a concentration of 25 μM.
After incubation, the virus-infected cells were observed microscopically. After 3 days of infection, cells were fixed with paraformaldehyde and cell monolayers were stained with crystal violet.
For orientation: Plaques are areas of infected cells; plaque reduction assays count them against a control.

The mark [6] stands for this setting: pre-incubation (2 hours before infection).

SMILES strings stand for the structures. ≈ marks a conversion by molar mass, not a printed value. Where two headings read alike, the source gives them in different places.

As to `CCCOCC(CC)c1ccc(C)cc1` (stereo not shown) [Compound A], the half-maximal inhibitory concentration (IC50) (in general, the midpoint of a concentration-inhibition curve) was determined as 38 µg/mL in assay [1] (co-incubation) and 9 µg/mL (≈ 43.6 µM) in assay [1] (setting [6]). Also, in assay [2] (all concentrations tested), the “synthesis of new viral RNA” value is given as “inhibits”. In addition, the “viral M1 genome copy numbers” value in assay [2] (nuclear RNA) was “decreased”. For the same molecule, in the assay with Influenza A/FM/1/47/H1N1 [3] (MDCK-II cells, 24 and 48 hpi, varying concentrations), the virus titer entry was “significantly decreased virus titer”. Also, the “anti-viral action (conclusion of the in vitro studies)” value with Influenza A/FM/1/47/H1N1 [3] (compared with ribavirin) is on record as “significant anti-viral action, comparable with that of ribavirin”.
On to `Cc1ccc(C(C)C)cc1` [p-cymene], for which the half-inhibitory concentration (IC50) came out at 83 µg/mL in assay [1] (co-incubation) and 59 µg/mL (≈ 440 µM) in assay [1] (setting [6]). Also, the “amount of intracellular viral nucleoprotein (NP)” value in assay [4] is “significantly decreased”. Also, in the assay with Influenza A/FM/1/47/H1N1 [5], the “plaque formation (number of forming plaques)” value is recorded as “significant, dose-dependent decrease of plaque formation”.

Source of the values: patent US20230101903A1, “COMPOUNDS USEFUL AS ANTI-VIRAL AGENTS” (NATURE CRETE PHARMACEUTICALS PC, priority 2020, published 2023).
